Structures are written as SMILES.

The target in this assay is T1, His tagged recombinant human tissue transglutaminase (His6-rh-TG2) (Homo sapiens, UniProt P21980).
T1 construct: purchased Zedira T002
T1 sequence (P21980 1-687): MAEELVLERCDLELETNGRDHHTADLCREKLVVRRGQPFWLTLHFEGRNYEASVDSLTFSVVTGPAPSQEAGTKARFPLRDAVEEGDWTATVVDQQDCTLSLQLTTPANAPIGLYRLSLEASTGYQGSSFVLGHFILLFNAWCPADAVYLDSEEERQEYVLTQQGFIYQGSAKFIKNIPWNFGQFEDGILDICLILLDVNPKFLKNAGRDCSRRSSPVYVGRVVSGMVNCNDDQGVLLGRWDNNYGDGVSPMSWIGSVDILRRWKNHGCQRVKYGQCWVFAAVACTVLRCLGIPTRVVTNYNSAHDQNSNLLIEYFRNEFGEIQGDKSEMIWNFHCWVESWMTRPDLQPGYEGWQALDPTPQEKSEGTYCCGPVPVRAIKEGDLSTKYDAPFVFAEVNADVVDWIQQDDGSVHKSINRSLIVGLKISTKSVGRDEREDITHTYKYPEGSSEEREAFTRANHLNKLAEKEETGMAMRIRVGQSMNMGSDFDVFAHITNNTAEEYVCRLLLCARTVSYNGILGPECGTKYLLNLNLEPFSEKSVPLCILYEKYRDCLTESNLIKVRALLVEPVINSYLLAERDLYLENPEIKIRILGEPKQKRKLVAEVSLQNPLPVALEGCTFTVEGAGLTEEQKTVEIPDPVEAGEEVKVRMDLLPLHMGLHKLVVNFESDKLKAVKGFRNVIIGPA
The experiment in a line: Inactivation of human tissue transglutaminase, fluorescence assay with Abz-APE(CAD-DNP)QEA-OH. Format: biochemical. Particulars: substrate Abz-APE(CAD-DNP)QEA-OH, 37° C., pH=7.5. On the procedure: General Method for Inactivation of Human Tissue Transglutaminase
250 μg lyophilized His tagged recombinant human tissue transglutaminase (His6-rh-TG2, Zedira product T002) are reconstituted by adding 150 μl water (resulting buffer 50 mM NaH2PO4, 150 mM NaCl, pH=8.0).
A 10 mM inhibitor stock solution in DMSO is prepared and is diluted with buffer (50 mM Tris-HCl, 10 mM CaCl2, 5 mM DTT, pH=7.5) each to the twentyfold of the concentration desired in the preparation (but at least 1/50 dilution resulting in a 2% DMSO concentration).
900 μl of an assay-solution consisting of 55.56 mM Tris, 11.11 mM CaCl2, 0.11% PEG8000, 5.56 mM DTT, 5.56 mM glycine methyl ester and 50 μM Abz-APE(CAD-DNP)QEA-OH, (Zedira product A102; patent No.: EP 1781807B1), pH=7.5 are added to a cuvette and heated in a measuring cell of a spectrophotometer to 37° C. 50 μl of the particular inhibitor solution are added to this solution (resulting in a concentration of less than 0.2% DMSO in the mixture).
7 μl of the transglutaminase solution reconstituted above are diluted with 51 μl buffer (50 mM Tris, 100 mM NaCl, 5 mM DTT, pH=7.5). 50 μl of this enzyme solution (10 μg His6-rhTG2) are added to the assay-solution containing the particular inhibitor concentration. It is incubated 5 min at 37° C. before measuring starts (λexc=313 nm and λem=418 nm, t=15 to 30 min).
The evaluation of the resulting enzyme activity is done using the slope of the straight line obtained by the increase in fluorescence.
To determine the non-inhibited enzyme activity, DMSO instead of inhibitor stock solution is used. IC50 values are determined by plotting the resulting enzyme activity against the logarithm of the inhibitor concentration. IC50 is defined as the concentration of inhibitor resulting in 50% of enzyme activity.
For the compound `CCC(CC)CNC(=O)Cn1cccc(NC(=O)[C@H](CC/C=C/C(=O)OC)NC(=O)c2cccnc2)c1=O` [A67, (S,E)-Methyl 7-(1-(2-(2-ethylbutylamino)-2-oxoethyl)-2-oxo-1,2-dihydropyridin-3-ylamino)-6-(nicotinamido)-7-oxohept-2-enoate], the half-maximal inhibitory concentration (IC50) amounted to 55 nM.
As for `CCOC(=O)/C=C/CC[C@H](NC(=O)c1ccc(N2CCCCC2)cc1)C(=O)Nc1cccn(CC(=O)NCCC(C)C)c1=O` [A18, (S,E)-Ethyl 7-(1-(2-(isopentylamino)-2-oxoethyl)-2-oxo-1,2-dihydropyridin-3-ylamino)-7-oxo-6-(4-(piperidin-1-yl)benzamido)hept-2-enoate], the IC50 is 175 nM.
In the case of `CCOC(=O)/C=C/CC[C@H](NC(C)=O)C(=O)Nc1cccn(CC(=O)N[C@@H](CC(C)(C)C)C(=O)OC)c1=O` [A40, (S,E)-Ethyl 6-acetamido-7-(1-(2-((S)-1-methoxy-4,4-dimethyl-1-oxopentan-2-ylamino)-2-oxoethyl)-2-oxo-1,2-dihydropyridin-3-ylamino)-7-oxohept-2-enoate], the IC50 worked out at 131 nM.
Regarding `CCOC(=O)/C=C/CC[C@H](NC(=O)c1ccc(S(N)(=O)=O)cc1)C(=O)Nc1cccn(CC(=O)NCCC(C)C)c1=O` [A14, (S,E)-Ethyl 7-(1-(2-(isopentylamino)-2-oxoethyl)-2-oxo-1,2-dihydropyridin-3-ylamino)-7-oxo-6-(4-sulfamoylbenzamido)hept-2-enoate], the IC50 is 137 nM.
With `CCOC(=O)/C=C/CC[C@H](NC(=O)OCc1ccccc1)C(=O)Nc1ccc(C)n(CC(=O)NC(CC(=O)O)CC(C)C)c1=O` (stereo partly drawn) [A5, 3-(2-(3-((S,E)-2-(Benzyloxycarbonylamino)-7-ethoxy-7-oxohept-5-enamido)-6-methyl-2-oxopyridin-1(2H)-yl)acetamido)-5-methylhexanoic acid] the figure was 130 nM; with `CCOC(=O)/C=C/CC[C@H](NC(=O)c1cccnc1)C(=O)Nc1ccc(C)n(CC(=O)NCCc2ccccc2)c1=O` [A8, (S,E)-Ethyl 7-(6-methyl-2-oxo-1-(2-oxo-2-(phenethylamino)ethyl)-1,2-dihydropyridin-3-ylamino)-6-(nicotinamido)-7-oxohept-2-enoate], 251 nM.
With `CCOC(=O)/C=C/CC[C@H](NC(C)=O)C(=O)Nc1cccn(CC(=O)NCCN(CC)CC)c1=O` [A25, (S,E)-Ethyl 6-acetamido-7-(1-(2-(2-(diethylamino)ethylamino)-2-oxoethyl)-2-oxo-1,2-dihydropyridin-3-ylamino)-7-oxohept-2-enoate] the figure was 4800 nM; with `CCOC(=O)/C=C/CC[C@H](NC(=O)CCC(=O)O)C(=O)Nc1cccn(CC(=O)NCCN(CC)CC)c1=O` [A26, (S,E)-4-(1-(1-(2-(2-(Diethylamino)ethylamino)-2-oxoethyl)-2-oxo-1,2-dihydropyridin-3-ylamino)-7-ethoxy-1,7-dioxohept-5-en-2-ylamino)-4-oxobutanoic acid], 5400 nM; with `CCOC(=O)/C=C/CC[C@H](NC(=O)c1ncsc1C)C(=O)Nc1cccn(CC(=O)NCCC(C)C)c1=O` [A15, (S,E)-Ethyl 7-(1-(2-(isopentylamino)-2-oxoethyl)-2-oxo-1,2-dihydropyridin-3-ylamino)-6-(5-methylthiazole-4-carboxamido)-7-oxohept-2-enoate], 92 nM.
On to `CCOC(=O)/C=C/CC[C@H](NC(=O)OCc1ccccc1)C(=O)Nc1cccn(CC(=O)NCCC(C)C)c1=O` [A3, (S,E)-Ethyl 6-(benzyloxycarbonylamino)-7-(1-(2-(isopentylamino)-2-oxoethyl)-2-oxo-1,2-dihydropyridin-3-ylamino)-7-oxohept-2-enoate], for which the IC50 was 96 nM.
For `CCOC(=O)/C=C/CC[C@H](NC(C)=O)C(=O)Nc1cccn(CC(=O)NCCC(C)(C)C)c1=O` [A39, (S,E)-Ethyl 6-acetamido-7-(1-(2-(3,3-dimethylbutylamino)-2-oxoethyl)-2-oxo-1,2-dihydropyridin-3-ylamino)-7-oxohept-2-enoate] the value was 115 nM; for `CCOC(=O)/C=C/CC[C@H](NC(=O)CCC(=O)O)C(=O)Nc1cccn(CC(=O)NCCc2cccs2)c1=O` [A47, (S,E)-4-(7-Ethoxy-1,7-dioxo-1-(2-oxo-1-(2-oxo-2-(2-(thiophen-2-yl)ethylamino)ethyl)-1,2-dihydropyridin-3-ylamino)hept-5-en-2-ylamino)-4-oxobutanoic acid], 480 nM.
For `CC(=O)N[C@@H](CC/C=C/S(C)(=O)=O)C(=O)Nc1cccn(CC(=O)NCCC(C)C)c1=O` [A77, (S,E)-2-acetamido-N-(1-(2-(isopentylamino)-2-oxoethyl)-2-oxo-1,2-dihydropyridin-3-yl)-6-(methylsulfonyl)hex-5-enamide] the value was 469 nM.
Consider `CCOC(=O)/C=C/CC[C@H](NS(=O)(=O)c1ccoc1)C(=O)Nc1cccn(CC(=O)NCCC(C)C)c1=O` [A13, (S,E)-Ethyl 6-(furan-3-sulfonamido)-7-(1-(2-(isopentylamino)-2-oxoethyl)-2-oxo-1,2-dihydropyridin-3-ylamino)-7-oxohept-2-enoate], for which the IC50 was found to be 83 nM.
For the compound `CCOC(=O)/C=C/CC[C@H](NC(=O)CCNC(N)=O)C(=O)Nc1cccn(CC(=O)NCCC(C)C)c1=O` [A56, (S,E)-Ethyl 7-(1-(2-(isopentylamino)-2-oxoethyl)-2-oxo-1,2-dihydropyridin-3-ylamino)-7-oxo-6-(3-ureidopropanamido)hept-2-enoate], the IC50 is 139 nM.
With `CCOC(=O)/C=C/CC[C@H](NC(=O)c1ccc(N2CCN(C)CC2)cc1)C(=O)Nc1cccn(CC(=O)NCCC(C)C)c1=O` [A20, (S,E)-Ethyl 7-(1-(2-(isopentylamino)-2-oxoethyl)-2-oxo-1,2-dihydropyridin-3-ylamino)-6-(4-(4-methylpiperazin-1-yl)benzamido)-7-oxohept-2-enoate] the figure was 202 nM.
With `CCOC(=O)/C=C/CC[C@H](NC(=O)OCc1ccccc1)C(=O)Nc1cccn(CC(=O)NCCc2c(C)cc(C)cc2C)c1=O` [A1, (S,E)-Ethyl 6-(benzyloxycarbonylamino)-7-oxo-7-(2-oxo-1-(2-oxo-2-(2,4,6-trimethylphenethylamino)ethyl)-1,2-dihydropyridin-3-ylamino)hept-2-enoate], the IC50 was 100 nM.
With `CCOC(=O)/C=C/CC[C@H](NC(=O)CCC(=O)O)C(=O)Nc1cccn(CC(=O)NCCN2CCNC2=O)c1=O` [A49, (S,E)-4-(7-Ethoxy-1,7-dioxo-1-(2-oxo-1-(2-oxo-2-(2-(2-oxoimidazolidin-1-yl)ethylamino)ethyl)-1,2-dihydropyridin-3-ylamino)hept-5-en-2-ylamino)-4-oxobutanoic acid], the IC50 came out at 1800 nM.
As to `CCOC(=O)/C=C/CC[C@H](NC(C)=O)C(=O)Nc1cccn(CC(=O)NCC(C)C)c1=O` [A54, (S,E)-Ethyl 6-acetamido-7-(1-(2-(isobutylamino)-2-oxoethyl)-2-oxo-1,2-dihydropyridin-3-ylamino)-7-oxohept-2-enoate], the IC50 came out at 191 nM.
With `CCOC(=O)/C=C/CC[C@H](NC(=O)CCC(=O)O)C(=O)Nc1cccn(CC(=O)N[C@H](C(=O)OC)[C@H](C)CC)c1=O` [A36, 4-((S,E)-7-Ethoxy-1-(1-(2-((2S,3R)-1-methoxy-3-methyl-1-oxopentan-2-ylamino)-2-oxoethyl)-2-oxo-1,2-dihydropyridin-3-ylamino)-1,7-dioxohept-5-en-2-ylamino)-4-oxobutanoic acid] the figure was 88 nM; with `CCOC(=O)/C=C/CC[C@H](NC(C)=O)C(=O)Nc1cccn(CC(=O)N[C@H](CC(C)C)C(=O)OC)c1=O` [A33, (S,E)-Ethyl 6-acetamido-7-(1-(2-((R)-1-methoxy-4-methyl-1-oxopentan-2-ylamino)-2-oxoethyl)-2-oxo-1,2-dihydropyridin-3-ylamino)-7-oxohept-2-enoate], 493 nM.

The record behind these values is US9434763B2, “Derivatives of pyridinone as inhibitors for tissue transglutaminase” (ZEDIRA GMBH, priority 2012, dated 2016).
